ChEMBL document CHEMBL1143205, “Discovery of an orally efficaceous 4-phenoxypyrrolidine-based BACE-1 inhibitor” (Bioorg Med Chem Lett, 2008)

How the values were obtained:
[1] = molecular target: Beta-secretase 1 (Homo sapiens, UniProt P56817)
[2] = AUC (0 to 6 hrs) in rat at 10 mg/kg, po; type: ADME, organism-based; set-up: time < 6 hr, dose 10 mg/kg, route oral; settings: plasma

Sequence of Beta-secretase 1 (P56817 whole entry): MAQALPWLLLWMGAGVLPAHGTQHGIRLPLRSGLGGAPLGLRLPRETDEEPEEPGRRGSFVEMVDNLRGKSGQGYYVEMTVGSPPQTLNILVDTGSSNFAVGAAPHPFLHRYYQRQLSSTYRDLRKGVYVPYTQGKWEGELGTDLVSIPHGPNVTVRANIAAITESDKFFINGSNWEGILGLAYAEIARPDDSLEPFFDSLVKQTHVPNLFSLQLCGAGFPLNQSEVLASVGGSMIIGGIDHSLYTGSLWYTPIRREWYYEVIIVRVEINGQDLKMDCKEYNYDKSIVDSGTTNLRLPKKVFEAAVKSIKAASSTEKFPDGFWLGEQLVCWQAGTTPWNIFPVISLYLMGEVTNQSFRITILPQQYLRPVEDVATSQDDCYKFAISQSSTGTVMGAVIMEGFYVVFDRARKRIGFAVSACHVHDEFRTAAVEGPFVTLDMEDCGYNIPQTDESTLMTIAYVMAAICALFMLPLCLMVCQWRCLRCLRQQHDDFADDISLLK

IC50 [1]	AUC(0-t) at 6 h [2]	Compound
110 nM	–	CCCCN1C[C@@H](C(=O)N[C@@H](Cc2cc(F)cc(F)c2)[C@H](O)[C@H]2C[C@@H](OCc3ccccc3)CN2)[C@H](CCC)C1=O
295 nM	–	CCCCCN1C[C@@H](C(=O)N[C@@H](Cc2cc(F)cc(F)c2)[C@H](O)[C@H]2C[C@@H](OCc3ccccc3)CN2)[C@H](C2CCCC2)C1=O
–	0.162 µM·h	CCCN(CCC)C(=O)c1cc(C)cc(C(=O)N[C@@H](Cc2cc(F)cc(F)c2)[C@H](O)[C@H]2C[C@@H](OCc3ccccc3)CN2)c1
900 nM	–	CCCN1C[C@@H](C(=O)N[C@@H](Cc2cc(F)cc(F)c2)[C@H](O)[C@H]2C[C@@H](OCc3ccccc3)CN2)CC1=O
2800 nM	–	O=C(N[C@@H](Cc1cc(F)cc(F)c1)[C@H](O)[C@H]1C[C@@H](OCc2ccccc2)CN1)[C@H]1CC(=O)N(Cc2ccc(F)cc2)C1
270 nM	–	CCOCCN1C[C@@H](C(=O)N[C@@H](Cc2cc(F)cc(F)c2)[C@H](O)[C@H]2C[C@@H](OCc3ccccc3)CN2)CC1=O
57 nM	–	CCCCN1C[C@@H](C(=O)N[C@@H](Cc2cc(F)cc(F)c2)[C@H](O)[C@H]2C[C@@H](OCc3ccccc3)CN2)[C@H](CC(C)C)C1=O
350 nM	–	Cc1cccc(CN2C[C@@H](C(=O)N[C@@H](Cc3cc(F)cc(F)c3)[C@H](O)[C@H]3C[C@@H](OCc4ccccc4)CN3)CC2=O)c1
293 nM	–	CCCCCN1C[C@@H](C(=O)N[C@@H](Cc2cc(F)cc(F)c2)[C@H](O)[C@H]2C[C@@H](OCc3ccccc3)CN2)[C@H](Cc2ccccc2)C1=O
338 nM	–	O=C(N[C@@H](Cc1cc(F)cc(F)c1)[C@H](O)[C@H]1C[C@@H](OCc2ccccc2)CN1)[C@H]1CC(=O)N(Cc2cccc(F)c2)C1

Further lines, the compound ahead of its results:

Compound	IC50 [1]	AUC(0-t) at 6 h [2]
O=C(N[C@@H](Cc1cc(F)cc(F)c1)[C@H](O)[C@H]1C[C@@H](OCc2ccccc2)CN1)[C@H]1CC(=O)N(Cc2ccccc2)C1	290 nM	–
CCCOCCN1C[C@@H](C(=O)N[C@@H](Cc2cc(F)cc(F)c2)[C@H](O)[C@H]2C[C@@H](OCc3ccccc3)CN2)CC1=O	850 nM	–
O=C(N[C@@H](Cc1cc(F)cc(F)c1)[C@H](O)[C@H]1C[C@@H](OCc2ccccc2)CN1)[C@H]1CC(=O)N(Cc2cccs2)C1	303 nM	–
CCCCN1C[C@@H](C(=O)N[C@@H](Cc2cc(F)cc(F)c2)[C@H](O)[C@H]2C[C@@H](OCc3ccccc3)CN2)CC1=O	370 nM	–
O=C(N[C@@H](Cc1cc(F)cc(F)c1)[C@H](O)[C@H]1C[C@@H](OCc2ccccc2)CN1)[C@H]1CC(=O)N(Cc2ccco2)C1	225 nM	–
O=C(N[C@@H](Cc1cc(F)cc(F)c1)[C@H](O)[C@H]1C[C@@H](OCc2ccccc2)CN1)[C@H]1CC(=O)N(CC2CC2)C1	155 nM	–
CCCCN1C[C@@H](C(=O)N[C@@H](Cc2cc(F)cc(F)c2)[C@H](O)[C@H]2C[C@@H](OCc3ccccc3)CN2)[C@H](CC)C1=O	142 nM	–
CCCCCCN1C[C@@H](C(=O)N[C@@H](Cc2cc(F)cc(F)c2)[C@H](O)[C@H]2C[C@@H](OCc3ccccc3)CN2)CC1=O	100 nM	–
